pEC50: −log10 of the molar value. Counter-ions that a name gives are not always drawn.
Assays:
[1] = biological target: SERT (Rattus norvegicus, UniProt P31652); test: In vitro [3H]5-HT release from rat brain synaptosomes; format: biochemical
[2] = biological target: hSERT (Homo sapiens, UniProt P31645); test: cell-based; format: cell-based; conditions: for concentration at which maximal current was measured: bell-shaped concentration-response curve; for inwardly-directed current compared to 5-HT-induced current: raw current traces, reference 10 μM 5-HT
Chain of hSERT (P31645 whole entry): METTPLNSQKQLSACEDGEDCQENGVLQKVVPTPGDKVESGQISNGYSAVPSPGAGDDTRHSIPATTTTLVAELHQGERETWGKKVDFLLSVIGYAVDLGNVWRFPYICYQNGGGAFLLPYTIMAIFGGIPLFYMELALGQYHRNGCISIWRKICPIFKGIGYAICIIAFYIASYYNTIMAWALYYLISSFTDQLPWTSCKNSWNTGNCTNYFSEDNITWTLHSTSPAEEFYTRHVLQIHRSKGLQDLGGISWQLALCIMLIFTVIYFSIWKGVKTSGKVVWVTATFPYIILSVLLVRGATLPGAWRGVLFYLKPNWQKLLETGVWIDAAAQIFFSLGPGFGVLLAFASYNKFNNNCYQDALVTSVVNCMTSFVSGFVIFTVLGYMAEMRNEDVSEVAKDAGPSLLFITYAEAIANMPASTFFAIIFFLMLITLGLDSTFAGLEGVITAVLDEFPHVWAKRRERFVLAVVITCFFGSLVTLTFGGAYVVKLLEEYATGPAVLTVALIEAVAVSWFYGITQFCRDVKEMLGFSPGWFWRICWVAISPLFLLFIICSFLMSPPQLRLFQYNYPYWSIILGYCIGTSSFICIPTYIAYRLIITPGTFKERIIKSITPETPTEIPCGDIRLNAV

[3] = tested on: [3H]dopamine release, rat caudate synaptosomes; test: In vitro [3H]dopamine release from rat caudate synaptosomes; format: biochemical; conditions: tested at concentrations up to 10 μM (data not shown)
[4] = tested on: extracellular 5-HT in nucleus accumbens; format: in vivo, rat; conditions: 6 mg/kg i.p.; for extracellular 5-HT after the first dose: first of 4 doses, nucleus accumbens dialysate; for persistent elevation of extracellular 5-HT for the duration of sampling: 4 doses every 2 h, 8 h sampling, % of basal
[5] = tested on: extracellular dopamine in nucleus accumbens; test: In vivo microdialysis in rat nucleus accumbens, dialysate dopamine; conditions: 6 mg/kg i.p., 4 doses; not different from saline in post hoc tests

Chain of SERT (P31652 whole entry): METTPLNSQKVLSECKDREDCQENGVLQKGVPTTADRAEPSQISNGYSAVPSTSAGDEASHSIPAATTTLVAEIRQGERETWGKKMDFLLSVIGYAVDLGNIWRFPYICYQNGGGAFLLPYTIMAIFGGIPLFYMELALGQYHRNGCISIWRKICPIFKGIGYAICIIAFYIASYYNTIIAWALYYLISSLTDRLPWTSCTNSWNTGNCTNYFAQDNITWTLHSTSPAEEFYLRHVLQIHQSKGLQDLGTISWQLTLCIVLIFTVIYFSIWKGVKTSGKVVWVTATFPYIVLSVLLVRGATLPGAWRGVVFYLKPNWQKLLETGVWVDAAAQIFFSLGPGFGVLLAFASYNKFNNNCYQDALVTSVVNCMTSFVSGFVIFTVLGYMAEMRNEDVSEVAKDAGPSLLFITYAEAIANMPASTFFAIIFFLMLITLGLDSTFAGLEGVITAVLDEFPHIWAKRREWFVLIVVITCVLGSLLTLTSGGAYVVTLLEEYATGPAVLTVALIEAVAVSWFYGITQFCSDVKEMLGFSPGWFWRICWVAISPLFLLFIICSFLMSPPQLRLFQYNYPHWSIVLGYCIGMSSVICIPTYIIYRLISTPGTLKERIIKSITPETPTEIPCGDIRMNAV

Compound | Emax of 5-HT release [1] [%] | concentration at which maximal current was measured ([2]; hSERT-expressing oocytes) [µM] | current magnitude relative to mCPP, TFMPP or MTA ([2]; maximal currents, hSERT-expressing oocytes) | inwardly-directed current compared to 5-HT-induced current [2] | releasing [3H]dopamine [3] | extracellular 5-HT after the first dose [4] | persistent elevation of extracellular 5-HT for the duration of sampling [4] | pEC50 [2] | dialysate dopamine [5]
CC(N)Cc1cccc(C(F)(F)F)c1.Cl (single isomer, unassigned; (+)) [d-norfenfluramine, (+)-1-[3-(trifluoromethyl)phenyl]propan-2-amine hydrochloride] | 100 | 100 | up to 2 times | almost as high as the 5-HT-induced current | – | – | – | – | –
CCN[C@@H](C)Cc1cccc(C(F)(F)F)c1 [d-fenfluramine, (+)-N-ethyl-1-[3-(trifluoromethyl)phenyl]propan-2-amine hydrochloride] | – | – | – | – | inactive | ~1200 % of basal | – | – | –
CSc1ccc(CC(C)N)cc1.CSc1ccc(C[C@@H](C)N)cc1 [MTA, 4-Methylthioamphetamine ((2R)-1-[4-(methylsulfanyl)phenyl]propan-2-amine)] | – | 3 | – | comparably small current | – | – | – | – | –
Cl.Cl.Clc1cccc(N2CCNCC2)c1 [mCPP, 1-(3-Chlorophenyl)piperazine dihydrochloride] | – | 3 | – | about half the 5-HT-induced current | inactive | about 1000 % of basal | about 500% | 5.71 | 150 % of basal
Cl.FC(F)(F)c1cccc(N2CCNCC2)c1 [TFMPP, 1-(3-trifluoromethylphenyl)piperazine hydrochloride] | – | 3 | – | about half the 5-HT-induced current | inactive | about 1400 % of basal | – | 5.61 | 80 % of basal
CCNC(C)Cc1cccc(C(F)(F)F)c1 (racemic) [fenfluramine, (±)-N-ethyl-1-[3-(trifluoromethyl)phenyl]propan-2-amine hydrochloride] | – | – | – | – | – | ~1200 % of basal | 500-800% | – | about 150 % of basal
